Data set [1] in a line: HPLC measurement of the solubility of the anti-estrogen in an aqueous solution of 2-hydroxypropyl cyclodextrin. The class given is physicochemical. To be noted: room temperature; for solubility: read-out: Toremifene solubility (mg of toremifene / ml of cyclodextrin-water soln.). As to the method:
A weighed amount of 2-hydroxypropyl cyclodextrin was dissolved into distilled water by shaking with a shaker. The so formed clear solution was equilibrated with a large excess of antiestrogen at the boiling point. […] The solution was kept overnight at room temperature and the excess of precipitated antiestrogen was removed by centrifugation.
The separations were carried out at room temperature on a 35 * 4.6 mm stainless steel column (packed with 3-μm spherical octadecylsilanebonded silica particles; HS-3 C-18, (Perkin-Elmer, USA)
The mobile phase consisted of a mixture of acetonitrile: 0.05 M aqueous phosphate buffer containing 0.004 M of dimethyloctyl amine with a pH of 7.4. The flow rate was 0.8 ml/min.

The nature of data set [2]: Toremifene concentration in emulsion (Emulsan 20%) after filtration, spectrophotometric at 278 nm. The class given is physicochemical. Particulars: for Concentration after filtration: toremifene citrate in Emulsan 20%. As to the method:
Emulsions prepared by dissolving the drug in a commercial fat emulsion.
The commercial fat emulsion used was Emulsan®20% (manufacturer Leiras-Kabi Infusion Ltd., Finland). […] The toremifene concentrations were 10 mg/ml, 14 mg/ml and 20 mg/ml. After the homogenization the samples were filtered through the 0.2 μm, 0.45 μm and 1.2 μm filters.
The concentration of toremifene was determined from the filtrate with a spectrofotometric method using the wave length of 278 nm. The samples were dissolved in methanol and diluted in the concentration of 0.02 mg/ml.

A further data set has as its system multidrug resistance. Particulars: high vs low plasma concentrations; J Clinical Oncology 1989; cited from earlier work.

≈ marks a conversion by molar mass, not a printed value. Read-outs that look alike come from different tables or passages of the source.

With `CN(C)CCOc1ccc(/C(=C(/CCCl)c2ccccc2)c2ccccc2)cc1` [toremifene], the solubility is 87.7 mg/mL (≈ 216 mM) in data set [1] (aqueous 2-hydroxypropyl cyclodextrin solution, 500 mg β-HPC/ml of aqueous soln.); 7.4 mg/mL (≈ 18.2 mM) in data set [1] (aqueous β-hpc solution, 25 mg/ml, 25 mg β-HPC/ml of aqueous soln.); 14.1 mg/mL (≈ 34.7 mM) in data set [1] (aqueous β-hpc solution, 63 mg/ml, 63 mg β-HPC/ml of aqueous soln.); 21.7 mg/mL (≈ 53.5 mM) in data set [1] (aqueous β-hpc solution, 125 mg/ml, 125 mg β-HPC/ml of aqueous soln.); 53 mg/mL (≈ 131 mM) in data set [1] (aqueous β-hpc solution, 250 mg/ml, 250 mg β-HPC/ml of aqueous soln.); 36.3 mg/mL (≈ 89.4 mM) in data set [1] (aqueous γ-hpc solution, 125 mg/ml, 125 mg Γ-HPC/ml of aqueous soln.). The solubility in data set [1] (aqueous γ-hpc solution, 250 mg/ml, 250 mg Γ-HPC/ml of aqueous soln.) is 61.1 mg/mL (≈ 151 mM); in data set [1] (aqueous γ-hpc solution, 500 mg/ml, 500 mg Γ-HPC/ml of aqueous soln.), 125 mg/mL (≈ 309 mM); in data set [1] (water, 0 mg β-HPC/ml of aqueous soln.), 0.3 mg/mL (≈ 0.739 mM). Further, the Concentration after filtration worked out at 4400 µg/mL in data set [2] (10 mg/ml before filtration, 0.2 μm filter); 4000 µg/mL in data set [2] (10 mg/ml before filtration, 0.45 μm filter); 4400 µg/mL in data set [2] (10 mg/ml before filtration, 1.2 μm filter); 4300 µg/mL in data set [2] (14 mg/ml before filtration, 0.45 μm filter); 3700 µg/mL in data set [2] (14 mg/ml before filtration, 1.2 μm filter); 3600 µg/mL in data set [2] (20 mg/ml before filtration, 0.45 μm filter). The Concentration after filtration in data set [2] (20 mg/ml before filtration, 1.2 μm filter) turned out to be 3600 µg/mL. Besides, the “solubility of toremifene by encapsulating in an emulsion droplet” value in data set [2] (emulsion droplet) is “can be increased considerably”. Moreover, the reversing multidrug resistance result in the data set on multidrug resistance is “more effective in reversing multidrug resistance than low concentrations”.
In the case of `CNCCOc1ccc(/C(=C(/CCCl)c2ccccc2)c2ccccc2)cc1` [desmethyl toremifene], in data set [1] (125 mg β-HPC/ml of aqueous soln.), the Desmethyl toremifene solubility (ml of desmethyl toremifene / ml of cyclodextrin-water soln.) was 21 mg/mL.
